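Compound exposure: 48 hours, 5 concentrations, 96-well plates. GI50 = concentration required for 50% inhibition of growth.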 Active and inactive are the calls of the source. No stated cut-off is given here; in the data, active = GI50 up to about 1.1 µM and inactive = higher.
How the values were obtained:
Assay in all cases: DTP human tumour cell line panel, 48 h
[1] = test system: ACHN
[2] = test system: BT-549
[3] = test system: HCT-15
[4] = test system: HOP-62
[5] = test system: HT-29
[6] = test system: Hs-578T
[7] = test system: KM12
[8] = test system: Malme-3M
[9] = test system: NCI-H23
[10] = test system: OVCAR-4
[11] = test system: OVCAR-5
[12] = test system: RXF 393
[13] = test system: SF-268
[14] = test system: SK-MEL-5
[15] = test system: SN12C
[16] = test system: SNB-75
[17] = test system: T47D
[18] = test system: U-251
[19] = test system: UACC-257
[20] = test system: SF-539

CN/C(N)=N/N=C1/C(=O)Nc2ccccc21
GI50 [1]: > 100 µM (inactive) | GI50 [2]: > 100 µM (inactive) | GI50 [3]: > 100 µM | GI50 [4]: > 100 µM (inactive) | GI50 [5]: > 100 µM (inactive) | GI50 [6]: > 100 µM (inactive) | GI50 [7]: > 100 µM (inactive) | GI50 [8]: > 100 µM (inactive) | GI50 [9]: > 100 µM (inactive) | GI50 [10]: > 100 µM (inactive) | GI50 [11]: > 100 µM (inactive) | GI50 [12]: > 100 µM (inactive) | GI50 [13]: > 100 µM (inactive) | GI50 [14]: > 100 µM (inactive) | GI50 [15]: > 100 µM (inactive) | GI50 [16]: > 100 µM (inactive) | GI50 [17]: > 100 µM (inactive) | GI50 [18]: > 100 µM (inactive) | GI50 [19]: > 100 µM (inactive)

CSCCC(NC(c1ccccc1)c1ccccc1)[PH](=O)O (centres undefined)
GI50 [1]: > 100 µM (inactive) | GI50 [2]: > 100 µM (inactive) | GI50 [3]: > 100 µM | GI50 [4]: > 100 µM (inactive) | GI50 [5]: > 100 µM (inactive) | GI50 [6]: > 100 µM (inactive) | GI50 [7]: > 100 µM (inactive) | GI50 [8]: > 100 µM (inactive) | GI50 [9]: > 100 µM (inactive) | GI50 [10]: > 100 µM (inactive) | GI50 [11]: > 100 µM (inactive) | GI50 [13]: > 100 µM (inactive) | GI50 [14]: > 100 µM (inactive) | GI50 [15]: > 100 µM (inactive) | GI50 [16]: > 100 µM (inactive) | GI50 [17]: > 100 µM (inactive) | GI50 [18]: > 100 µM (inactive) | GI50 [19]: > 100 µM (inactive)

O=C1/C(=C\c2ccco2)Oc2ccccc21
GI50 [1]: > 100 µM (inactive) | GI50 [2]: > 100 µM (inactive) | GI50 [3]: > 100 µM | GI50 [4]: > 100 µM (inactive) | GI50 [5]: > 100 µM (inactive) | GI50 [6]: > 100 µM (inactive) | GI50 [7]: > 100 µM (inactive) | GI50 [9]: > 100 µM (inactive) | GI50 [10]: > 100 µM (inactive) | GI50 [11]: > 100 µM (inactive) | GI50 [12]: > 100 µM (inactive) | GI50 [13]: > 100 µM (inactive) | GI50 [14]: > 100 µM (inactive) | GI50 [15]: > 100 µM (inactive) | GI50 [16]: > 100 µM (inactive) | GI50 [17]: 72.3 µM (inactive) | GI50 [18]: > 100 µM (inactive) | GI50 [19]: > 100 µM (inactive)

O=C(CN1CCN(c2ccccn2)CC1)N1CCCn2c1nc1ccccc1c2=O
GI50 [1]: > 100 µM (inactive) | GI50 [2]: > 100 µM (inactive) | GI50 [3]: > 100 µM | GI50 [4]: > 100 µM (inactive) | GI50 [5]: > 100 µM (inactive) | GI50 [6]: > 100 µM (inactive) | GI50 [7]: > 100 µM (inactive) | GI50 [8]: > 100 µM (inactive) | GI50 [9]: > 100 µM (inactive) | GI50 [10]: > 100 µM (inactive) | GI50 [11]: > 100 µM (inactive) | GI50 [13]: > 100 µM (inactive) | GI50 [20]: > 100 µM (inactive) | GI50 [14]: > 100 µM (inactive) | GI50 [15]: > 100 µM (inactive) | GI50 [16]: > 100 µM (inactive) | GI50 [17]: > 100 µM (inactive) | GI50 [18]: > 100 µM (inactive) | GI50 [19]: > 100 µM (inactive)

CO[C@H](c1ccccc1)[C@H](O)[C@](O)(c1ccccc1)P(=O)(OC)OC
GI50 [1]: > 100 µM (inactive) | GI50 [2]: > 100 µM (inactive) | GI50 [3]: > 100 µM | GI50 [5]: > 100 µM (inactive) | GI50 [7]: > 100 µM (inactive) | GI50 [8]: > 100 µM (inactive) | GI50 [9]: > 100 µM (inactive) | GI50 [10]: > 100 µM (inactive) | GI50 [11]: > 100 µM (inactive) | GI50 [12]: > 100 µM (inactive) | GI50 [13]: > 100 µM (inactive) | GI50 [20]: > 100 µM (inactive) | GI50 [14]: > 100 µM (inactive) | GI50 [15]: > 100 µM (inactive) | GI50 [16]: > 100 µM (inactive) | GI50 [17]: > 100 µM (inactive) | GI50 [18]: > 100 µM (inactive) | GI50 [19]: > 100 µM (inactive)

O=c1c(C(c2ccc(-c3ccccc3)cc2)c2c(O)oc3ccccc3c2=O)c(O)oc2ccccc12
GI50 [1]: 26.7 µM (inactive) | GI50 [2]: 19.2 µM (inactive) | GI50 [3]: 19.1 µM | GI50 [4]: 24.1 µM (inactive) | GI50 [5]: 20.3 µM (inactive) | GI50 [6]: 24.4 µM (inactive) | GI50 [7]: 19.6 µM (inactive) | GI50 [8]: 24.7 µM (inactive) | GI50 [9]: 24.8 µM (inactive) | GI50 [10]: 35.1 µM (inactive) | GI50 [13]: 21.8 µM (inactive) | GI50 [14]: 28.7 µM (inactive) | GI50 [15]: 16.7 µM (inactive) | GI50 [16]: 24.5 µM (inactive) | GI50 [17]: 40 µM (inactive) | GI50 [18]: 44.8 µM (inactive) | GI50 [19]: 34.4 µM (inactive)

From ChEMBL document CHEMBL1201862, “PubChem BioAssay data set” (2004)
